Assay results from ChEMBL document CHEMBL4828777, “Effect of the Chromone Core Substitution of Dirchromone on the Resultant Biological Activities” (J Nat Prod, 2021).
≈ marks a conversion by molar mass, not a printed value.

Legend:
[1] = test system: Staphylococcus aureus; assay: Antibacterial activity against Staphylococcus aureus ATCC 25923 assessed as reduction in bacterial growth incubated for 24 hrs by microdilution method; assay type: functional
[2] = test system: Candida albicans; assay: […] activity against Candida albicans ATCC 10231 assessed as reduction in fungal growth incubated for 24 hrs by microdilution method; assay type: functional
[3] = test system: DLD-1; assay: Cytotoxicity against human DLD-1 cells assessed as reduction in cell viability incubated for 48 hrs by Hoechst staining based assay; assay type: functional; conditions: DLD-1, 48 h
[4] = test system: A549; assay: Cytotoxicity against human A549 cells assessed as reduction in cell viability incubated for 48 hrs by Hoechst staining based assay; assay type: functional; conditions: A549, 48 h
[5] = Cytotoxicity against human WS1 cells assessed as reduction in cell viability incubated for 48 hrs by Hoechst staining based assay; conditions: WS1, 48 h

| Compound | MIC90 [1] [µM] | MIC90 [2] [µM] | IC50 [3] [nM] | IC50 [4] [nM] | IC50 [5] [nM] |
| --- | --- | --- | --- | --- | --- |
| C[S+]([O-])/C=C/c1cc(=O)c2cc(O)ccc2o1 (racemic) | 24 (≈ 6.01 µg/mL) | > 100 | > 10000 | 10500 | 7500 |
| COc1ccc2oc(/C=C/[S+](C)[O-])cc(=O)c2c1 (racemic) | 6.1 (≈ 1.61 µg/mL) | > 100 | 5700 | 1600 | 1300 |
| COc1ccc2c(=O)cc(/C=C/[S+](C)[O-])oc2c1 (racemic) | 20 (≈ 5.29 µg/mL) | > 100 | 7800 | 2200 | 1800 |
| C[S+]([O-])/C=C/c1cc(=O)c2ccccc2o1 (racemic) | 9 (≈ 2.11 µg/mL) | > 100 | 8000 | 1900 | 2000 |
| CCCCC(=O)Oc1ccc2oc(/C=C/[S+](C)[O-])cc(=O)c2c1 (racemic) | 5.1 (≈ 1.71 µg/mL) | 47 (≈ 15.7 µg/mL) | 6700 | 2400 | 1800 |
| C[S+]([O-])/C=C/c1cc(=O)c2ccc3ccccc3c2o1 (racemic) | 4.8 (≈ 1.36 µg/mL) | > 100 | 7000 | 1400 | 1900 |
| Cc1ccc2c(=O)cc(/C=C/[S+](C)[O-])oc2c1 (racemic) | 10 (≈ 2.48 µg/mL) | > 100 | 7000 | 2000 | 1900 |
| C[S+]([O-])/C=C/c1cc(=O)c2cc(Cl)ccc2o1 (racemic) | 2.7 (≈ 0.726 µg/mL) | > 100 | 6500 | 1700 | 1600 |
| CC(C)C(=O)Oc1ccc2oc(/C=C/[S+](C)[O-])cc(=O)c2c1 (racemic) | 9 (≈ 2.88 µg/mL) | > 100 | 9100 | 2400 | 1900 |
| C[S+]([O-])/C=C/c1cc(=O)c2cc(Br)ccc2o1 (racemic) | 2.5 (≈ 0.783 µg/mL) | 47 (≈ 14.7 µg/mL) | 4500 | 1100 | 1000 |
| COc1cccc2oc(/C=C/[S+](C)[O-])cc(=O)c12 (racemic) | 43 (≈ 11.4 µg/mL) | > 100 | > 10000 | 3800 | 3800 |
| CC(=O)Oc1ccc2oc(/C=C/[S+](C)[O-])cc(=O)c2c1 (racemic) | 11 (≈ 3.22 µg/mL) | > 100 | > 10000 | 4100 | 2500 |
| CC(C)Oc1ccc2oc(/C=C/[S+](C)[O-])cc(=O)c2c1 (racemic) | 11.1 (≈ 3.25 µg/mL) | 84 (≈ 24.6 µg/mL) | 8000 | 1500 | 1400 |
| C[S+]([O-])/C=C/c1cc(=O)c2cc(C#N)ccc2o1 (racemic) | 5.6 (≈ 1.45 µg/mL) | > 100 | > 10000 | > 10000 | > 10000 |
| C[S+]([O-])/C=C/c1oc2ccccc2c(=O)c1Cc1ccccc1 (racemic) | 2.9 (≈ 0.941 µg/mL) | > 100 | 5100 | 1300 | 1200 |
| C[S+]([O-])/C=C/c1cc(=O)c2cc(F)ccc2o1 (racemic) | 5.3 (≈ 1.34 µg/mL) | > 100 | 7000 | 2100 | 1700 |
| CCCCCOc1ccc2oc(/C=C/[S+](C)[O-])cc(=O)c2c1 (racemic) | 4.3 (≈ 1.38 µg/mL) | 7 (≈ 2.24 µg/mL) | 6600 | 1600 | 1700 |
| CC(C)COc1ccc2oc(/C=C/[S+](C)[O-])cc(=O)c2c1 (racemic) | 5.7 (≈ 1.75 µg/mL) | 13.4 (≈ 4.11 µg/mL) | 5000 | 1100 | 1200 |

| Compound | MIC90 [1] [µM] | MIC90 [2] [µM] | IC50 [3] [nM] | IC50 [4] [nM] | IC50 [5] [nM] |
| --- | --- | --- | --- | --- | --- |
| Cc1c(/C=C/[S+](C)[O-])oc2ccccc2c1=O (racemic) | 20 (≈ 4.97 µg/mL) | > 100 | 7200 | 1500 | 2100 |
| COc1cccc2c(=O)cc(/C=C/[S+](C)[O-])oc12 (racemic) | 11 (≈ 2.91 µg/mL) | > 100 | 9000 | 2200 | 1900 |
| CCOc1ccc2oc(/C=C/[S+](C)[O-])cc(=O)c2c1 (racemic) | 11.4 (≈ 3.17 µg/mL) | 67 (≈ 18.6 µg/mL) | 4900 | 1500 | 2000 |
| CCCOc1ccc2oc(/C=C/[S+](C)[O-])cc(=O)c2c1 (racemic) | 11 (≈ 3.22 µg/mL) | 39 (≈ 11.4 µg/mL) | 6200 | 1100 | 1900 |
| CCCC(=O)Oc1ccc2oc(/C=C/[S+](C)[O-])cc(=O)c2c1 (racemic) | 7.2 (≈ 2.31 µg/mL) | > 100 | 8700 | 2200 | 1500 |
| Cc1ccc2oc(/C=C/[S+](C)[O-])cc(=O)c2c1 (racemic) | 10 (≈ 2.48 µg/mL) | > 100 | 7000 | 1700 | 1800 |
| CCCCOc1ccc2oc(/C=C/[S+](C)[O-])cc(=O)c2c1 (racemic) | 5.4 (≈ 1.65 µg/mL) | 14.1 (≈ 4.32 µg/mL) | 4800 | 1400 | 1100 |
| C[S+]([O-])/C=C/c1cc(=O)c2cc(OC(=O)C(C)(C)C)ccc2o1 (racemic) | 10 (≈ 3.34 µg/mL) | 71 (≈ 23.7 µg/mL) | 8000 | 1600 | 1000 |
| CCC(=O)Oc1ccc2oc(/C=C/[S+](C)[O-])cc(=O)c2c1 (racemic) | 10 (≈ 3.06 µg/mL) | > 100 | 9000 | 2400 | 2100 |
| CC(C)CCOc1ccc2oc(/C=C/[S+](C)[O-])cc(=O)c2c1 (racemic) | 2.8 (≈ 0.897 µg/mL) | 8.4 (≈ 2.69 µg/mL) | 4100 | 1000 | 850 |
| C[S+]([O-])/C=C/c1cc(=O)c2cc3c(cc2o1)OCO3 (racemic) | 39 (≈ 10.9 µg/mL) | > 100 | 6000 | 2100 | 2000 |
| CC(C)CC(=O)Oc1ccc2oc(/C=C/[S+](C)[O-])cc(=O)c2c1 (racemic) | 5.1 (≈ 1.71 µg/mL) | 72 (≈ 24.1 µg/mL) | 6100 | 2300 | 1700 |
| C[S+]([O-])/C=C/c1cc(=O)c2c(ccc3ccccc32)o1 (racemic) | 18 (≈ 5.12 µg/mL) | > 100 | 4300 | 940 | 880 |
| Cc1cccc2oc(/C=C/[S+](C)[O-])cc(=O)c12 (racemic) | 23 (≈ 5.71 µg/mL) | > 100 | 5500 | 1300 | 1900 |
| Cc1cccc2c(=O)cc(/C=C/[S+](C)[O-])oc12 (racemic) | 10 (≈ 2.48 µg/mL) | > 100 | 6800 | 1700 | 2200 |
| C[C@@H]1[C@H](O)[C@@H](C)/C=C/C=C/C=C/C=C/C=C/C=C/C=C/[C@H](O[C@@H]2O[C@H](C)[C@@H](O)[C@H](N)[C@@H]2O)C[C@@H]2O[C@](O)(C[C@@H](O)C[C@@H](O)[C@H](O)CC[C@@H](O)C[C@@H](O)CC(=O)O[C@H]1C)C[C@H](O)[C@H]2C(=O)O [AMPHOTERICIN B] | – | 1.4 (≈ 1.29 µg/mL) | – | – | – |
| COc1cc([C@@H]2c3cc4c(cc3[C@@H](O[C@@H]3O[C@@H]5CO[C@@H](C)O[C@H]5[C@H](O)[C@H]3O)[C@H]3COC(=O)[C@H]23)OCO4)cc(OC)c1O [ETOPOSIDE] | – | – | 570 | 4800 | 47000 |
| GENTAMICIN | 0.09 | – | – | – | – |
